Laboratory results taken from ChEMBL document CHEMBL1201862, “PubChem BioAssay data set” (2004).
The source made the active and inactive calls.

Tests used:
[1] = MITF Measured in Cell-Based System Using Plate Reader - 2084-01_Inhibitor_Dose_DryPowder_Activity_Set6.; assay type: functional
[2] = MITF Orthogonal Assay: MALME3 CTG Assay Measured in Cell-Based System Using Plate Reader - 2084-04_Inhibitor_Dose_DryPowder_Activity_Set6.; assay type: functional; conditions: MALME-3
[3] = MITF Orthogonal Assay: SK-MEL-5 CTG Assay Measured in Cell-Based System Using Plate Reader - 2084-02_Inhibitor_Dose_DryPowder_Activity_Set5.; assay type: functional
[4] = A375 melanoma cell viability loss, dose response, counter-screen for MITF inhibitor project, CellTiter-Glo luminescence, dry powder, set 4 (AID 624364); assay type: functional, cell-based; conditions: A-375;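 note: A375 melanoma cells are MITF independent so this is a counter screen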
[5] = SK-MEL-5 parental line viability, dose response, MITF inhibitor project, cell-based, CellTiter-Glo, dry powder, set 6 (AID 624429); assay type: functional
[6] = A375 melanoma cell cytotoxicity, dose response, counter-screen for MITF inhibitor project, CellTiter-Glo luminescence, dry powder, set 6 (AID 624488); assay type: functional, cell-based; conditions: A-375
[7] = A375 melanoma cell cytotoxicity, dose response, counter-screen for MITF inhibitor project, CellTiter-Glo luminescence, dry powder, set 7 (AID 624490); assay type: functional, cell-based; conditions: A-375
[8] = TRPM1 promoter luciferase reporter signal decrease, dose response, MITF inhibitor project, cell-based, SK-MEL-5, dry powder, set 9 (AID 651588); assay type: functional
[9] = MALME3 melanoma cell viability reduction, dose response, orthogonal assay for MITF inhibitor project, CellTiter-Glo luminescence, dry powder, set 5 (AID 651584); assay type: functional, cell-based; conditions: MALME-3
[10] = MITF Measured in Cell-Based System Using Plate Reader - 2084-01_Inhibitor_Dose_DryPowder_Activity_Set7.; assay type: functional
[11] = SK-MEL-5 parental cell viability reduction, dose response, orthogonal assay for MITF inhibitor project, CellTiter-Glo luminescence, dry powder, set 8 (AID 651586); assay type: functional, cell-based
[12] = A375 melanoma cell cytotoxicity, dose response, counter-screen for MITF inhibitor project, CellTiter-Glo luminescence, dry powder, set 2 (AID 624489); assay type: functional, cell-based; conditions: A-375;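 note: actives are compounds lowering A375 viability meaning general cytotoxicity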
[13] = A375 melanoma cell viability loss, dose response, counter-screen for MITF modulator project, CellTiter-Glo luminescence, dry powder, set 9 (AID 651591); assay type: functional, cell-based; conditions: A-375
[14] = MC4R antagonists, dose response, counter-screen for LGR2 antagonist project, cell-based, plate reader, cherry pick (AID 743444); assay type: functional;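 note: transfected HEK 293 cells stimulated with alpha-MSH peptide; potency of inhibitors of the alpha-MSH evoked signal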
Paired box protein Pax-8 = Paired box protein Pax-8 (Homo sapiens, UniProt Q06710); assay: inhibitors of PAX8-driven TPO luciferase reporter, dose response, RMG-I cells, cherry-pick (AID 687027); assay type: functional, cell-based;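 note: luciferase reporter driven by Pax8 target thyroperoxidase promoter measured by SteadyGlo luminescence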
[15] = NIH:OVCAR-3 ovarian cancer cell cytotoxicity, dose response, PAX8 inhibitor project, plate reader, dry powder samples (AID 743044); assay type: functional, cell-based
[16] = P. falciparum Dd2 growth inhibitors, dose response, SYBR Green, dry powder samples, set 9 (AID 1159568); assay type: functional, cell-based
[17] = HepG2 cell cytotoxicity, dose response, cytotoxicity control, plate reader, cherry-pick, antagonist series (AID 743416); assay type: functional, cell-based
[18] = HEK293 cell cytotoxicity, dose response, cytotoxicity control, plate reader, cherry-picked samples (AID 743446); assay type: functional, cell-based
[19] = A2780 ovarian cancer cell cytotoxicity, dose response, cytotoxicity control, plate reader, dry powder samples (AID 743046); assay type: functional, cell-based
[20] = LGR2 antagonists, dose response, cell-based, HEK293, CRE-luciferase reporter, cherry pick, set 2 (AID 743343); assay type: functional;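 note: transfected cells were stimulated with diluted bursicon conditioned medium after compound addition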
[21] = P. falciparum ATP4 D1247Y mutant growth inhibitors, dose response, NITD609-resistant line, SYBR Green, dry powder (AID 1159571); assay type: functional, cell-based;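 note: parasites synchronized at ring stage by sorbitol before testing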
[22] = A549 cell cytotoxicity, dose response, cytotoxicity control, plate reader, cherry-pick, antagonist series (AID 743412); assay type: functional, cell-based
[23] = IOSE-T80 ovarian epithelial cell cytotoxicity, dose response, cytotoxicity control for PAX8 inhibitor project, plate reader, dry powder samples (AID 743045); assay type: functional, cell-based
[24] = HepG2 cell cytotoxicity, dose response, cytotoxicity control, plate reader, dry powder samples (AID 1159569); assay type: functional, cell-based;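 note: inhibitor potency with signal falling toward the positive control level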
[25] = P. falciparum 3D7-ScDHODH growth inhibitors, dose response, SYBR Green, dry powder samples (AID 1159570); assay type: functional, cell-based;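 note: parasite growth measured after 72 hours of compound exposure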
[26] = IGROV1 ovarian cancer cell cytotoxicity, dose response, PAX8 inhibitor project, plate reader, dry powder samples (AID 743043); assay type: functional, cell-based; conditions: IGROV-1
[27] = cytotoxicity in OVCAR8 ovarian cancer cells, dose response, PAX8 project, cell-based, plate reader, dry powder samples (AID 743197); assay type: functional; conditions: OVCAR-8
[28] = P. falciparum Dd2 growth inhibitors, dose response, SYBR Green, dry powder samples (AID 1159566); assay type: functional, cell-based;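 note: potency for growth inhibition with lower SYBR green DNA signal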
[29] = P. falciparum Dd2 growth inhibitors, dose response, SYBR Green, cherry-picked samples (AID 1159567); assay type: functional, cell-based
[30] = HeLa 4N DNA content increase, dose response, cell-based, IC50 (AID 1117351); assay type: functional
[31] = cytotoxicity toward HT-29 cells – cell-based, CellTiter-Glo luminescence, IC50, dose response (AID 1117330); assay type: functional
[32] = microbe, parasite or virus in culture; assay type: functional; conditions: Mycobacterium tuberculosis
[33] = RKO cell viability reduction, dose response, CellTiter-Glo luminescence (AID 1117322); assay type: functional
P388 = assay: cells; assay type: functional; conditions: Mus musculus
P388/ADR = assay: cells; assay type: functional; conditions: Mus musculus
SN12K1 = assay: cells; assay type: functional; conditions: Homo sapiens
[34] = HeLa 2N DNA content increase, dose response, cell-based, IC50 (AID 1117349); assay type: functional
[35] = HCT116 cell viability decrease, GSK3B pretreatment – CellTiter-Glo, IC50, dose response (AID 1117339); assay type: functional; conditions: HCT-116
[36] = molecular target: NAD-dependent protein deacylase sirtuin-5, mitochondrial (Homo sapiens, UniProt Q9NXA8); assay: SIRT5 desuccinylase inhibitors, dose response, biochemical, fluorescence imaging, cherry-pick, set 5 (AID 720591);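 note: desuccinylation of succinyl peptide AMC substrate read as fluorescence after trypsin release; potency of inhibitors that lower fluorescence and may act on trypsin instead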
[37] = M. tuberculosis growth inhibition, HTS (AID 449762); assay type: functional
[38] = HepG2 cell cytotoxicity, dose response, cytotoxicity control, ATP luminescence, dry powder, Set4 (AID 743143); assay type: functional, cell-based
[39] = Fluorescence Cell-Based Dose Response to Identify Inhibitors of Thrombin Receptor-Activating Peptide SFLLRN-Mediated P-Selectin Induction on Platelets. [Related pubchem assays: 1663 (Primary HTS), 1889 (retest at dose ), 1891 (counterscreen), 1678 (Project Summary)]; assay type: functional
[40] = molecular target: Luciferin 4-monooxygenase (Photinus pyralis, UniProt P08659); assay: firefly luciferase enzyme inhibitors, dose response, biochemical, luminescence (AID 1891)
[41] = Luminescence Cell-Based Dose Confirmation HTS to Identify Inhibitors of Platelet Dense Granule Release. [Related pubchem assays: 1663 (Primary HTS), 1678 (Summary of Project)]; assay type: functional

Chain of Luciferin 4-monooxygenase (P08659 whole entry): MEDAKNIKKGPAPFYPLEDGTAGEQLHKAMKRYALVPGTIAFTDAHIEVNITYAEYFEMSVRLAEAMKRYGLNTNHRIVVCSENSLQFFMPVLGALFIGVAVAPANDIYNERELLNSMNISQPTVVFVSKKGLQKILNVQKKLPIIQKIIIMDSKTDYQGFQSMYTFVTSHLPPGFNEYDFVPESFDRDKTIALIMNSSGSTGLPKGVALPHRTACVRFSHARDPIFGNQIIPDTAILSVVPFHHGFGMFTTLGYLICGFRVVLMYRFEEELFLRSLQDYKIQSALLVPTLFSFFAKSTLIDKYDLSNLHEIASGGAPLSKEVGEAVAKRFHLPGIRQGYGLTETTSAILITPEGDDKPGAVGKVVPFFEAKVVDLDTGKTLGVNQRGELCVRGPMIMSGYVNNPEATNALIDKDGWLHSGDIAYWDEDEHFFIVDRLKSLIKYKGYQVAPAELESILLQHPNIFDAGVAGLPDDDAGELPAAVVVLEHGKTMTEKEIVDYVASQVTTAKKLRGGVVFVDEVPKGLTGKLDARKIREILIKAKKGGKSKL
Chain of Paired box protein Pax-8 (Q06710 whole entry): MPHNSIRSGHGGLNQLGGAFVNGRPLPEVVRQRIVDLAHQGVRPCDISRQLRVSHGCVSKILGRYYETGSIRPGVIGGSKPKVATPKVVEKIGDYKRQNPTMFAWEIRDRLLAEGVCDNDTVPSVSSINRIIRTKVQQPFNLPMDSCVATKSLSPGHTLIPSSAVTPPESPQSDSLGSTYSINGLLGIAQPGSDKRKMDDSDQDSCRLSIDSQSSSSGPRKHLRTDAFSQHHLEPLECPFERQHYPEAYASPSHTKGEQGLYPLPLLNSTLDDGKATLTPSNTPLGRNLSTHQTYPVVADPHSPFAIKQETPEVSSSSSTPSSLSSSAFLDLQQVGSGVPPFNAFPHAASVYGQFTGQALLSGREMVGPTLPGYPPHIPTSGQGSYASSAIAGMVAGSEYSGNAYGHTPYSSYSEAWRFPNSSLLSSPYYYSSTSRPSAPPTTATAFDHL
Chain of NAD-dependent protein deacylase sirtuin-5, mitochondrial (Q9NXA8 whole entry): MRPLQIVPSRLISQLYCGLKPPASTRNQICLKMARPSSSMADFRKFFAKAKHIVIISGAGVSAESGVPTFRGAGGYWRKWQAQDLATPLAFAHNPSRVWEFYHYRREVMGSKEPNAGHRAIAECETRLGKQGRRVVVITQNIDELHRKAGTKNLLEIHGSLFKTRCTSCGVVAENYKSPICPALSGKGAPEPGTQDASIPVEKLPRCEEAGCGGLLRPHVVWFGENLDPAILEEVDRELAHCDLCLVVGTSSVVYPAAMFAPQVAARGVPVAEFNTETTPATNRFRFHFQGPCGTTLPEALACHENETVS

## NC1=C(NC(=O)c2ccccc2)C(=O)c2ccccc2C1=O
[1]
  AC50: 4.07 µM (active)
[2]
  AC50: 14.3 µM (active)
[3]
  AC50: 6.7 µM (active)
[4]
  AC50: > 70 µM (inactive)
[5]
  AC50: 9.56 µM (active)
[6]
  AC50: 60.3 µM (active)
[7]
  AC50: > 70 µM (inactive)
[8]
  AC50: 18.6 µM (active)
[9]
  AC50: 14.3 µM (active)
[10]
  AC50: 7.02 µM (active)
[11]
  AC50: 10.1 µM (active)
[12]
  AC50: 59.8 µM (active)
[13]
  AC50: > 70 µM (inactive)

## O=C(C1CC1)N1C[C@@H]2N[C@H](C1)[C@@H]2c1ccc(-c2ccccc2F)cc1
[14]
  AC50: 2.57 µM (active)
Paired box protein Pax-8
  AC50: 1.2 µM (active)
[15]
  AC50: 5.96 µM (active)
[16]
  AC50: 0.83 µM (active)
[17]
  AC50: 4.58 µM (active)
[18]
  AC50: 4.12 µM (active)
[19]
  AC50: 5.34 µM (active)
[20]
  AC50: 2.25 µM (active)
[21]
  AC50: 0.225 µM (active)
[22]
  AC50: 1.84 µM (active)
[23]
  AC50: 3.24 µM (active)
[24]
  AC50: 32.3 µM (active)
[25]
  AC50: 0.139 µM (active)
[26]
  AC50: 4.13 µM (active)
[27]
  AC50: 2.72 µM (active)
[28]
  AC50: 0.145 µM (active)
[29]
  AC50: 0.584 µM (active)

## CO[C@@]12[C@H](COC(N)=O)C3=C(C(=O)C(C)=C(N)C3=O)N1C[C@@H]1N[C@@H]12 [MITOMYCIN]
[30]
  IC50: > 10 µM (inactive)
[31]
  IC50: 2.57 µM (active)
[32]
  CC50: > 40 µM (active)
[33]
  IC50: 0.995 µM (active)
P388
  GI50: 0.181 µM (active)
P388/ADR
  GI50: 1.39 µM (inactive)
SN12K1
  GI50: 0.959 µM (active)
[34]
  IC50: 0.0133 µM (active)
[35]
  IC50: > 20 µM (inactive)

## CC(=O)CSc1nnc(-c2ccco2)n1-c1ccccc1
[36]
  AC50: > 30 µM (inactive)

## Nc1ccc2c(c1)oc1ccccc12
[37]
  IC50: > 100 µM (active)

## O=C(CNC(=O)c1ccc(Cl)c(Cl)c1)N[C@@H]1CCCc2ccccc21
[38]
  AC50: > 52 µM (inactive)

## COC(=O)c1ccccc1NC(=O)Nc1ccc2c(c1)OCO2
[39]
  EC50: < 100 µM (not active)
[40]
  EC50: > 112 µM (not active)
[41]
  EC50: 5.7 µM (active)
